We go through 5 compounds from patent US20240197666A1, “DITERPENOID COMPOUNDS THAT ACT ON PROTEIN KINASE C (PKC)” (K-Gen Therapeutics, Inc., priority 2021, published 2024).

pIC50, pKi: −log10 of the molar value. Several values for one entry are separate records, joined by “and”; a condition that tells them apart may be missing. Identical values can stand only once. Like-named read-outs stand apart in the source and are kept apart here.

The target of one assay is T1, C1b domain of human PKCθ (Homo sapiens, UniProt Q04759).
T1 construct: Genes encoding C1b domains of human PKCα, δ, ε, θ, and PKD1 (PKCμ) were synthesized; made in house; host or cells: E. coli BL21(DE3)
T1 sequence (Q04759 231-281 limits assumed): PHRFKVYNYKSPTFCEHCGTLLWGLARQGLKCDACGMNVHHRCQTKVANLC
Put plainly: biochemical. Particulars: 3H-PDBu competition. Format: binding. Here is the method: (§1) Compounds described in this disclosure were tested for binding affinity to C1b domain of PKC isoforms. Compound binding affinity to C1b domain of PKC isoforms was derived from competitive binding assay using radioactive tracer ^3H-PDBu and recombinant GST-C1b or full-length of human PKC proteins based on modified procedures from Methods in Molecular Biology, vol.
(§2) Genes encoding C1b domains of human PKCα, δ, ε, θ, and PKD1 (PKCμ) were synthesized and inserted into pGEX-2TK or pGEX-4T1 vectors for expression and production of GST-C1b proteins in E. coli BL21(DE3) via IPTG induction. The target proteins were purified by glutathione sepharose 4B and followed by ion exchange chromatography if needed to achieve purity >70%. Aliquots of the purified proteins were stored at −80 degree for binding assay (storage buffer: 20 mM Tris pH 8.0, 200 mM NaCl, 10% glycerol, 1 mM DTT).
(§3) The plate was incubated at 37° C. on a shaker at 300 rpm for 10 minutes and then put on ice for 20 minutes. […] The bottom of the filter plate was sealed and 50 μL of MicroScint-20 (PerkinElmer) cocktail was added to each well. ^3H-PDBu trapped in each well was counted using PerkinElmer MicroBeta2 Reader. Data were analyzed using GraphPad Prism5 with the model “log(inhibitor) vs. response-variable slope” to fit the IC50, and then IC50 was transformed to Ki using Cheng-Prusoff equation: Ki=IC50/(1+added radio ligand/Kd). Kd is the binding affinity of each protein preparation to ^3H-PDBu, determined experimentally.

The next assay relates to A549 cell line. Put plainly: Proliferation of A549 (CellTiter Glo). Format: cell-based. Conditions: Homo sapiens, read-out: IC50 μM (A549 Cell Line). Here is the method:
(§4) The diterpenoid compounds were tested in A549, a non-small cell lung cancer cell line harboring a K-Ras activating mutation. Briefly, A549 cells at a density of 1,000 cells/well were seeded in 96-well plates and incubated at 37° C. for 24 hours. A series of different concentrations of compound stocks (500×) were prepared by 3-fold serial dilution in DMSO. These compounds were further diluted in culture media and then added to cells so that the final DMSO concentration was not exceeding 0.25%. After 96 hours of incubation, 50 μL of CellTiter Glo reagent (Promega) was added to each well and luminescence was measured after 10 minutes using EnVision (PerkinElmer). Luminescence from cells treated with DMSO alone was set as Max and % of inhibition was calculated as follows: Inhibition %=(Max-Sample value)/Max×100. Data was analyzed using XL-fit software (ID Business Solutions Ltd.) and IC50, relative IC50, and % of top inhibition was calculated. Some of the compounds in this disclosure were very potent in blocking proliferation of A549 lung cancer cells at low nM range. In addition, potency of inhibiting A549 proliferation correlated well with its binding affinity to PKCs for this series of compounds. In other words, higher affinity binders had stronger inhibitory effects on A549 proliferation. This further support the notion that activation, rather than inhibition, of certain PKC isoforms is required to block proliferation of cancer cells, some of which may harbor K-Ras mutations. This is in sharp contrast to previous literature and common belief that inhibition of PKC is necessary to block cancer cell growth (Kang, 2014, New Journal of Science, 2014:1-36). Data presented here is in agreement with recent findings that many loss-of-function but not gain-of-function mutations of PKC isoforms have been identified in many human cancers (Antal et al., 2015, Cell, 160:489-502).
(ATP-based viability assays read luminescence as a measure of living cells.)

The next assay concerns HL-60 (Leukemia). Put plainly: Proliferation of HL-60. Format: cell-based. Here is the method:
as §4
(§5) The compounds in this disclosure were tested for their potency in blocking proliferation of a few other cancer cells lines, including K-Ras mutant pancreatic cell lines Panc2.13 and KP-4, leukemia cell line HL-60, and lymphoma cell lines Namalwa and Mino. Similar procedures as in Example 67 were followed. Initial cell numbers seeded in 96-well plates were different for different cell lines: 3000 cells/well for Panc2.13; 800-1000 cells/well for KP-4; 5000 cells/well for HL-60; 5000-10000 cells/well for Namalwa and Mino. A ratio of (IC50 of K101)/(IC50 of compound) (data in parenthesis in Table 5) was used to normalize the compound potency from different assay batches to a common comparator K101.

The subject of another assay is Namalwa (Lymphoma). Put plainly: Proliferation of Namalwa. In kind it is cell-based. Here is the method: as §4, §5
The next assay concerns Mino (Lymphoma). Put plainly: Proliferation of Mino. Format: cell-based. As to the method: as §4, §5
Assay [1] deals with NFκB-driven transcription in HeLa-NFκB luciferase reporter cell line. Put plainly: NFκB luciferase reporter assay. Conditions: Homo sapiens, HeLa, 16 h, read-out: NFκB-luc HeLa cells EC50 (μM). In general terms: Reporter assays use an easily measured gene product as a stand-in for the process of interest.
Procedure: A HeLa-NFκB luciferase reporter cell line (Wuxi Biology) was used to assess a group of PKC activator compounds for their ability to activate NFκB-driven transcription. […] One set of cells was assayed for luciferase activity (Promega, Cat #E1500) and the other set was assayed to determine the number of viable cells (for cell number normalization) using CellTiter-Glo (CTG) kit (Promega, Cat #G7570) according to manufacture's procedures. Normalized data (luciferase value/CTG value) were analyzed using GraphPad Prism5 to calculate EC50 for each compound (see Table 8).
To assess if activation of PKC is required for these compounds to activate NFκB, several PKC inhibitors including broad-spectrum and conventional PKC inhibitors were tested. In the assay described above, PKC inhibitors were added at the same time as the PKC activator compounds.
The target of the next assay is T2, C1b domain of human PKCδ (Homo sapiens, UniProt Q05655).
T2 construct: Genes encoding C1b domains of human PKCα, δ, ε, θ, and PKD1 (PKCμ) were synthesized; made in house; host or cells: E. coli BL21(DE3)
T2 sequence (Q05655 230-280 limits assumed): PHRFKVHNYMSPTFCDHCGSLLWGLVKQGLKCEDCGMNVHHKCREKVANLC
Put plainly: biochemical. Format: binding. Particulars: 3H-PDBu competition. As to the method:
as §1, §2, §3

In another assay the target is T3, C1b domain of human PKCε (Homo sapiens, UniProt Q02156).
T3 construct: Genes encoding C1b domains of human PKCα, δ, ε, θ, and PKD1 (PKCμ) were synthesized; made in house; host or cells: E. coli BL21(DE3)
T3 sequence (Q02156 242-292 limits assumed): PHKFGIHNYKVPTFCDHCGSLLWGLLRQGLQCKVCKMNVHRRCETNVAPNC
Put plainly: biochemical. Format: binding. Particulars: 3H-PDBu competition. Here is the method:
as §1, §2, §3

The test system of a further assay is CT26 tumors. Put plainly: CT26 tumor after single dose intratumoral treatment, H&E stain and CD31 IHC. Format: in vivo, mouse. Conditions: for CD31 IHC (counts per mm^2) / H&E Necrotic tumor area (%): individual tumors. As to the method:
Method. Each 6-8 weeks old female Balb/c mouse was implanted with 3×10^5 CT26 mouse colon cancer cells in one flank for tumor development. When the average tumor volume reached 95 mm^3, 21 mice were randomized into different groups and were treated via a single IT injection (20 uL) according to the group assignment (different dose and treatment duration) in the table below. Tumors were harvested at 1h, 7h, or 24h post IT injection, and then fixed and processed for paraffin embedding.
Paraffin blocks were sectioned into […] sections using Leica RM2235 microtome. One section was stained for Hematoxylin-Eosin (H&E) using Leica ST5020-CV5030 stainer integrated workstation according to the Manufacture's procedure. Photos were taken using Nikon DS-Ri2. Another section was processed for IHC staining with the CD31 antibody (BD, Cat #550274) at 1:10 dilution. The stained slides were scanned using Leica Aperio VERSA 8 and the images were analyzed using HALO image analysis software system (Indica Labs).

For `CC1=C[C@H]2[C@@]3(O)[C@H](C)C[C@]4(OC(=O)CCC5CCCC5)[C@H]([C@@H]3C=C(CO)C[C@]2(O)C1=O)C4(C)C`, at C1b domain of human PKCθ, the negative logarithm of the Ki (pKi) – broadly, the Ki on a negative log10 scale, so that one unit is a factor of ten – is 7.52 to 8.00. Moreover, the IC50 (commonly the point on the concentration scale where inhibition reaches its midpoint) with A549 cell line (A549, 96 h) lay in the range of 0.03 to 0.06 µM. In addition, in the assay on HL-60 (Leukemia), the “ratio (IC50 of K101)/(IC50 of compound) HL-60” value is given as 9.23. In addition, the pIC50 (commonly the IC50 on a negative log10 scale, so that one unit is a factor of ten) is 7.22 to 7.52 in the assay on HL-60 (Leukemia) (Homo sapiens, HL-60, read-out: IC50 HL-60 (Leukemia)); 7.22 to 7.52 with Namalwa (Lymphoma) (read-out: IC50 Namalwa (Lymphoma)); 8.00 to 9.00 in the assay on Mino (Lymphoma) (Homo sapiens, MINO, read-out: IC50 Mino (Lymphoma)). The “ratio (IC50 of K101)/(IC50 of compound) Namalwa” value in the assay with Namalwa (Lymphoma) is recorded as 1.73. The “ratio (IC50 of K101)/(IC50 of compound) Mino” value in the assay on Mino (Lymphoma) is reported as 11. Moreover, the EC50 – broadly, the concentration that produces a half-maximal response – in assay [1] lay in the range of 0.06 to 0.1 µM.
Regarding `CC1=C[C@H]2[C@@]3(O)[C@H](C)C[C@]4(OC(=O)C5CC6(C5)CN(C(=O)OC(C)(C)C)C6)[C@H]([C@@H]3C=C(CO)C[C@]2(O)C1=O)C4(C)C`, the pKi at C1b domain of human PKCδ and on C1b domain of human PKCθ was 7.52 to 8.00 each time. Also, the IC50 in the assay on A549 cell line (A549, 96 h) fell in the range of 0.1 to 0.2 µM.
As to `CC1=C[C@H]2[C@@]3(O)[C@H](C)C[C@]4(OC(=O)CC5CC6(C5)CN(C(=O)OC(C)(C)C)C6)[C@H]([C@@H]3C=C(CO)C[C@]2(O)C1=O)C4(C)C`, the pKi on C1b domain of human PKCε and at C1b domain of human PKCθ was 7.52 to 8.00 each time. Also, the IC50 with A549 cell line (A549, 96 h) was in the range of 0.03 to 0.06 µM.
As for `CC1=C[C@H]2[C@@]3(O)[C@H](C)C[C@]4(OC(=O)/C=C/c5ccc(C(F)(F)F)cc5)[C@H]([C@@H]3C=C(CO)C[C@]2(O)C1=O)C4(C)C`, the pKi at C1b domain of human PKCδ, on C1b domain of human PKCε and at C1b domain of human PKCθ was 7.52 to 8.00 in each case. The IC50 in the assay on A549 cell line (A549, 96 h) lay in the range of 0.06 to 0.1 µM.
With `CC1=C[C@H]2[C@@]3(O)[C@H](C)C[C@]4(OC(=O)[C@H](N)CCCCCCc5ccccc5)[C@H]([C@@H]3C=C(COC(=O)[C@@H](N)C(C)C)C[C@]2(O)C1=O)C4(C)C`, the IC50 in the assay with A549 cell line (A549, 96 hours, CellTiter Glo) lay in the range of 0.03 to 0.06 µM. The “CD31 IHC (counts per mm^2)” value in the assay with CT26 tumors (47.2 μg single IT, 24 h) was 163 counts per mm^2 and 111 counts per mm^2; in the assay with CT26 tumors (141.6 μg single IT, 24 h) it was 176 counts per mm^2 and 29 counts per mm^2 and 72 counts per mm^2; in the assay on CT26 tumors (472 μg single IT, 1 h), 577 counts per mm^2 and 457 counts per mm^2 and 463 counts per mm^2; in the assay with CT26 tumors (472 μg single IT, 7 h), 188 counts per mm^2 and 536 counts per mm^2 and 179 counts per mm^2; with CT26 tumors (472 μg single IT, 24 h) it was 155 counts per mm^2 and 187 counts per mm^2 and 118 counts per mm^2. Also, the “H&E Necrotic tumor area (%)” value in the assay on CT26 tumors (47.2 μg single IT, 24 h) was 40% and 70%; with CT26 tumors (141.6 μg single IT, 24 h), 80% (2×) and 90%; with CT26 tumors (472 μg single IT, 1 h), 5% and 3% and 0%; in the assay on CT26 tumors (472 μg single IT, 7 h), 10% and 0% and 25%; with CT26 tumors (472 μg single IT, 24 h), 40% and 30% and 90%. The “tumors with reduction of CD31 density” value in the assay with CT26 tumors (47.2 μg, 7h) is listed as 2 out of 3. For the same compound, the “massive cell death in tumors” value in the assay with CT26 tumors (all three doses, 24h) was “up to 90%”.
